Earlier results on six substances are cited in patent US5801147A, “Polypeptides and use thereof” (Takeda Chemical Industries, Ltd., priority 1991, dated 1998).

No end group written: not given here.

In this data set the test system is hypophysis cells. The settings on record: prior art.

Turning to “PACAP23: polypeptide consisting of 23 amino acid residues on the N-terminal side of PACAP38 (HSDGIFTDSYSRYRKQMAVKKYL; ends and bridges not checked; UniProt P18509 132-154, looked up, fragment)”, the “c-AMP-producing activity (background statement)” value (shortened to “c-AMP-producing activity”) is listed as “the same activity as that of PACAP27”.
As for “PACAP24: polypeptide consisting of 24 amino acid residues on the N-terminal side of PACAP38 (HSDGIFTDSYSRYRKQMAVKKYLA; ends and bridges not checked; UniProt P18509 132-155, looked up, fragment)”, the “c-AMP-producing activity” value is listed as “the same activity as that of PACAP27”.
For “PACAP25: polypeptide consisting of 25 amino acid residues on the N-terminal side of PACAP38 (HSDGIFTDSYSRYRKQMAVKKYLAA; ends and bridges not checked; UniProt P18509 132-156, looked up, fragment)”, the “c-AMP-producing activity” value is “the same activity as that of PACAP27”.
In the case of “PACAP26: polypeptide consisting of 26 amino acid residues on the N-terminal side of PACAP38 (HSDGIFTDSYSRYRKQMAVKKYLAAV; ends and bridges not checked; UniProt P18509 132-157, looked up, fragment)”, the “c-AMP-producing activity” value was “the same activity as that of PACAP27”.
“PACAP27: a polypeptide consisting of 27 amino acid residues on the N-terminal side of PACAP38 (HSDGIFTDSYSRYRKQMAVKKYLAAVL; ends and bridges not checked; UniProt P18509 132-158, looked up)”: the “c-AMP-producing activity” value is “The activity of PACAP38 has also been found”.
On to “PACAP38: polypeptide consisting of 38 amino acid residues, discovered in humans, sheep and rats (SEQ ID NO:1) (HSDGIFTDSYSRYRKQMAVKKYLAAVLGKRYKQRVKNK; ends and bridges not checked)”, for which the “c-AMP-producing activity” value is “enhances the production of intracellular c-AMP in hypophysis cells”.
